Source: US7449495B2, “Retinoid derivatives with antiangiogenic, antitumoral and proapoptotic activities” (Sigma-Tau Industrie Farmaceutiche Riunite S.p.A., priority 2001, dated 2008)

How the values were obtained:
[1] = test system: human no small cell lung carcinoma NCI-H460; assay: Antitumoral activity in human no small cell lung carcinoma model NCI-H460; format: in vivo; conditions: NCI-H460, 15 mg/kg po
Description: The ST1926 solution was prepared immediately before use and solubilised in cremophor:ethanol 1:1 and subsequently diluted 1:4 in buffered saline solution. The animal treatments were administered in a volume of 10 ml/kg. […] Measurements of tumor dimensions were performed using a digital calliper (Vernier Caliper) twice weekly, from the time in which the mass was measurable. The tumor mass was evaluated from the size of the two principal dimensions (length and breadth), expressed in mm, applying the formula (length×breadth^2)/2, that is, the tumor volume in mm3. For each experimental group, the percentage of tumor volume inhibition was calculated (TVI %), with respect to the control, namely (100−(T/C %). TVI was evaluated 2 days after the final administration of ST1926.
A comparison between the TVI values obtained for each group was performed using the non parametric Mann Whitney test for non-paired data, using the Instat software from GraphPad inc.

[2] = test system: Human Promyelocytic Leukaemia NB4 Cells; assay: Cyto-fluorometric cell cycle analysis, NB4; format: cell-based; conditions: 3 days; for G0/G1 / G2 + M / S: percentage of cell cycle phase
Description: To evaluate the effect of the compound according to the invention, on various phases of the cell cycle, cyto-fluorometric cell cycle analyses were performed.
HL60 or NB4 cells were seeded onto plates at a density of 150.000 cells/ml in RPMI 1640 medium containing 10% FCS, the test compound (ST 1926) was added, solubilised in 0.1% DMSO at concentrations of between 0.01 and 0.1 μM, in the presence or absence of sub-optimal doses of ATRA (5-10 nM for NB4 and 0.5 μM for HL60) in the dark and placed in an incubator for 3 days without changing the culture medium.
On the third day of treatment 500.000 cells were sampled, centrifuged at 180×g for 5 minutes, washed twice in calcium and magnesium free PBS. The cells (1×10^6/ml of fixative) were fixed for at least 1 hour in a fixation mixture comprised of acetone/methanol 1:4 v/v maintained at −20° C. and 50% of calcium and magnesium free PBS; then the cells were centrifuged, washed in calcium and magnesium free PBS, and again centrifuged and washed. The cellular precipitate was incubated for 30 minutes in the dark at room temperature with 200 μl of […] (100 μg/ml) and 200 μl of RNAse (150 KU/mg).
The samples with filtered through nylon filters (60-80 μm diameter) and analysed by cyto-fluorimeter FACScan (Becton Dickinson), acquiring 20000 events/sample, at an excitation wavelength of 488 nm and emission wavelength of 620 nm. The analysis of the percentages of the cell cycle phases was performed using a dedicated software package, Modfit v. 2.0 (Becton Dickinson).

[3] = test system: A2780/Dx multidrug-resistant human ovarian carcinoma cells; assay: Cytotoxicity in combination with TRAIL, A2780/Dx; format: cell-based; conditions: 72 hours, value >1 synergism (FIG. 1)
Description: FIG. 1 is a graph showing the interaction between ST1926 and TRAIL in A2780/Dx multidrug-resistant human ovarian carcinoma cells at different concentrations of TRAIL.
A study of cytotoxicity of ST1926 in combination with TRAIL was performed in two different tumor cell lines such as M109 murine lung carcinoma and A2780/Dx multidrug-resistant human ovarian carcinoma. Cells were maintained in RPMI 1640 medium containing 10% FCS, 1% sodium pyruvate and 1% glutamine.
The cells were seeded in a volume of 250 μl in 96 well plates and incubated for 24 hours at 37° C. The following day, test compound ST 1926 [(2E)-3-[3′-(1-Adamantyl)-4′-hydroxy[1,1′-biphenyl]-4-yl]-2-propenoate/ic acid] or TRAIL were added at increasing concentrations, and the cells were incubated for a further 72 hours at 37° C. in a humidified atmosphere containing 5% CO2. On the 5th day, the supernatant was removed by upturning the plates. 200 μl of PBS and 50 μl of cold, 80% TCA were added. The plates were then left to incubate on ice for at least 1 hour. The TCA was removed by upturning; the plates were washed three times by immersion in distilled water and dried first on paper, then with a jet of hot air. […] The optical density was measured using a Multiskan spectrophotometer at 540 nm.
The interaction between ST1926 and TRAIL was determined by using the analysis of Drewinko et al. (Cancer Biochem. Biophys. 1: 187-195, 1976). […]

SMILES: O=C(O)/C=C/c1ccc(-c2ccc(O)c(C34CC5CC(CC(C5)C3)C4)c2)cc1 [ST1926, E-4-(3-(1-adamantyl)-4-hydroxyphenyl)cinnamic acid]
- BWL % Max ([1]; qdx3x3w): 4%
- Lethality ([1]; qdx3x3w): 0/8
- TVI % ± SE ([1]; qdx3x3w): *52 ± 7%
- BWL % Max ([1]; qdx4x3w): 14%
- Lethality ([1]; qdx4x3w): 0/8
- TVI % ± SE ([1]; qdx4x3w): **38 ± 8%
- BWL % Max ([1]; qdx5x3w): 4%
- Lethality ([1]; qdx5x3w): 0/8
- TVI % ± SE ([1]; qdx5x3w): *40 ± 2%
- APOPTOSIS ([2]; NB4, 0.01 μM): 19.9
- G0/G1 ([2]; NB4, 0.01 μM): 48.4
- G2 + M ([2]; NB4, 0.01 μM): 12.8
- S ([2]; NB4, 0.01 μM): 38.8
- APOPTOSIS ([2]; NB4, 0.02 μM): 28.4
- G0/G1 ([2]; NB4, 0.02 μM): 48.2
- G2 + M ([2]; NB4, 0.02 μM): 12.4
- S ([2]; NB4, 0.02 μM): 39.4
- APOPTOSIS ([2]; NB4, 0.04 μM): 33.9
- G0/G1 ([2]; NB4, 0.04 μM): 51.3
- G2 + M ([2]; NB4, 0.04 μM): 13.0
- S ([2]; NB4, 0.04 μM): 35.7
- APOPTOSIS ([2]; NB4, 0.08 μM): 45.0
- G0/G1 ([2]; NB4, 0.08 μM): 41.4
- G2 + M ([2]; NB4, 0.08 μM): 5.0
- S ([2]; NB4, 0.08 μM): 53.6
- APOPTOSIS ([2]; NB4, 0.1 μM): 53.6
- G0/G1 ([2]; NB4, 0.1 μM): 50.6
- G2 + M ([2]; NB4, 0.1 μM): 3.3
- S ([2]; NB4, 0.1 μM): 46.1
- effect on the cell cycle of NB4 (in words) ([2]; NB4, 0.08 and 0.1 μM): induces growth arrest in the duplication S phase of the cycle and apoptosis
- interaction between ST1926 and TRAIL (analysis of Drewinko et al.) [3]: synergic activity
